A short description of data set [1]: Aqueous solubility, equilibrated 24 hour suspension of the salt in water, HPLC. The class given is physicochemical. The following applies: for pH: pH measured at saturation in water; for Solubility: water, 24 hour at ambient. As to the method:
The aliquot was diluted and analyzed by HPLC. The data was compared to a standard curve generated from a set of solutions of known concentrations. The standard curve and the samples were analyzed using a HPLC using the following conditions: • Column: Symmetry C-18, 5 um, 15 cm×3.9 mm (Waters) • Mobile Phase: 0.05 M KH2PO4-0.01 M Hexanesulfonic Acid/THF (1000:125) (Apparent pH 5.0) • Column Temp: 20-30° C. • Flow Rate: 1.0 mL/min • Wavelength: 305 nm • Run Time: 15 min (zopiclone retention time is 9.5-10 min)

The nature of data set [2]: Intrinsic dissolution, USP 28 method <1087>. The data set is classed as physicochemical. The following applies: isotonic 50 mM acetate buffer pH 4.5, 37° C., 50 rpm; for Intrinsic dissolution Average: average of two runs. As to the method: Intrinsic dissolution was determined using USP 28 method <1087> (United States Pharmacopeia, The National Formulary, USP 28, 28th edition, Rockville, […]., 2005). Preparation of each test sample was performed as per USP 28 method <1087> by weighing and transferring the material to the die cavity and compressing for 1 minute at the minimum compression pressure necessary to form a nondisintegrating compacted pellet. The dissolution media used was isotonic 50 mM acetate buffer (pH 4.5) at 37° C. and speed was set at 50 rpm. Each run was halted at 5 min, irrespective of the percent dissolved. Each salt was run in duplicate.

SMILES strings stand for the structures. Structures can show the parent of a compound that is named as a salt.

Consider `CN1CCN(C(=O)O[C@H]2c3nccnc3C(=O)N2c2ccc(Cl)cn2)CC1` [Mesylate, (S)-Zopiclone Mesylate], for which, in data set [1], the pH was 4.9 and the Solubility was greater than 86 mgA/mL.
As for `CN1CCN(C(=O)O[C@H]2c3nccnc3C(=O)N2c2ccc(Cl)cn2)CC1` [Free base, (S)-(6-(5-chloro-2-pyridyl)-5-[(4-methyl-1-piperazinyl)carbonyloxy]-7-oxo-6,7-dihydro-5H-pyrrolo[3,4-b]pyrazine), reference compound], in data set [1], the pH is listed as 7.6 and the Solubility is recorded as 0.2^1 mgA/mL. Further, in data set [2], the “Intrinsic dissolution Run 1” value was 0.6 mgA/cm^2/min, the “Intrinsic dissolution Run 2” value is given as 0.5 mgA/cm^2/min and the “Intrinsic dissolution Average” value is 0.5 mgA/cm^2/min.
`CN1CCN(C(=O)OC2c3nccnc3C(=O)N2c2ccc(Cl)cn2)CC1` (stereo in doubt) [(R)-Mandelate, (S)-Zopiclone (R)-Mandelate]: in data set [1], the pH was 5.1 and the Solubility is reported as 25 mgA/mL. In data set [2], the “Intrinsic dissolution Run 1” value is reported as 8.2 mgA/cm^2/min, the “Intrinsic dissolution Run 2” value was 8.9 mgA/cm^2/min and the “Intrinsic dissolution Average” value was determined as 8.5 mgA/cm^2/min.
On to `CN1CCN(C(=O)O[C@H]2c3nccnc3C(=O)N2c2ccc(Cl)cn2)CC1` [D-Malate, (S)-Zopiclone D-Malate], for which, in data set [1], the pH turned out to be 4.0 and the Solubility stood at 36 mgA/mL. Moreover, in data set [2], the “Intrinsic dissolution Run 1” value is recorded as 20.0 mgA/cm^2/min, the “Intrinsic dissolution Run 2” value was found to be 19.8 mgA/cm^2/min and the “Intrinsic dissolution Average” value was determined as 19.9 mgA/cm^2/min.
Turning to `CN1CCN(C(=O)O[C@H]2c3nccnc3C(=O)N2c2ccc(Cl)cn2)CC1` [Succinate, (S)-Zopiclone Succinate], the Solubility in data set [1] was 100 mgA/mL.

The values are drawn from US20110053945A1, “SALTS OF 6-(5-CHLORO-2-PYRIDYL)-5-[(4-METHYL-1-PIPERAZINYL)CARBONYLOXY]-7-OXO-6,7-DIHY-DRO-5H-PYRROLO[3,4-B]PYRAZINE” (SEPRACOR INC., priority 2007, published 2011).
